Reference: PubChem BioAssay (NCI)
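The compound was tested at five concentrations on cells cultured in 96-well plates, with a 48-hour exposure period. At the TGI there is no net growth.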

Assays:
Test in all cases: NCI anticancer screen, dose series, 48 h
XF 498 CNS = test system: XF 498 CNS
RXF 393 renal = test system: RXF 393 renal
SNB-19 CNS = test system: SNB-19 CNS
SK-MEL-5 melanoma = test system: SK-MEL-5 melanoma
SNB-75 CNS = test system: SNB-75 CNS
SK-OV-3 ovarian = test system: SK-OV-3 ovarian
SW-620 colon = test system: SW-620 colon
M14 melanoma = test system: M14 melanoma
SNB-78 CNS = test system: SNB-78 CNS
ACHN renal = test system: ACHN renal
SK-MEL-28 melanoma = test system: SK-MEL-28 melanoma
SF-295 CNS = test system: SF-295 CNS
CAKI-1 renal = test system: CAKI-1 renal
U251 CNS = test system: U251 CNS
HOP-62 NSCLC = test system: HOP-62 NSCLC
MOLT-4 leukemia = test system: MOLT-4 leukemia
COLO 205 colon = test system: COLO 205 colon
UACC-257 melanoma = test system: UACC-257 melanoma
NCI-H460 lung = test system: NCI-H460 lung
OVCAR-4 ovarian = test system: OVCAR-4 ovarian
786-0 renal = test system: 786-0 renal
K-562 leukemia = test system: K-562 leukemia
NCI-H522 lung = test system: NCI-H522 lung
NCI-H23 lung = test system: NCI-H23 lung
LOX IMVI melanoma = test system: LOX IMVI melanoma
OVCAR-8 ovarian = test system: OVCAR-8 ovarian
SF-268 CNS = test system: SF-268 CNS
HL-60(TB) leukemia = test system: HL-60(TB) leukemia
HCT-15 colon = test system: HCT-15 colon
M19-MEL melanoma = test system: M19-MEL melanoma
MALME-3M melanoma = test system: MALME-3M melanoma
CCRF-CEM leukemia = test system: CCRF-CEM leukemia
SR leukemia = test system: SR leukemia
SK-MEL-2 melanoma = test system: SK-MEL-2 melanoma
EKVX NSCLC = test system: EKVX NSCLC
HT29 colon = test system: HT29 colon
KM20L2 colon = test system: KM20L2 colon
OVCAR-5 ovarian = test system: OVCAR-5 ovarian
A549 NSCLC = test system: A549 NSCLC
SF-539 CNS = test system: SF-539 CNS
UO-31 renal = test system: UO-31 renal
SN12C renal = test system: SN12C renal
KM12 colon = test system: KM12 colon
DMS 273 small cell lung = test system: DMS 273 small cell lung
HCT-116 colon = test system: HCT-116 colon
RPMI-8226 leukemia = test system: RPMI-8226 leukemia
LXFL 529 NSCLC = test system: LXFL 529 NSCLC
OVCAR-3 ovarian = test system: OVCAR-3 ovarian
UACC-62 melanoma = test system: UACC-62 melanoma
A498 renal = test system: A498 renal
DMS 114 small cell lung = test system: DMS 114 small cell lung
HCC-2998 colon = test system: HCC-2998 colon
NCI-H226 lung = test system: NCI-H226 lung
DLD-1 colon = test system: DLD-1 colon
TK-10 renal = test system: TK-10 renal
IGROV1 ovarian = test system: IGROV1 ovarian
HOP-92 NSCLC = test system: HOP-92 NSCLC

What does the source list for `CC(=O)OCC(OC(C)=O)C(OC(C)=O)C(OC(C)=O)C(=O)CNn1c(-c2ccc(C)cc2)nc2ccccc2c1=O` (centres undefined)?
TGI (XF 498 CNS): > 100 µM; TGI (RXF 393 renal): > 100 µM; TGI (SNB-19 CNS): > 100 µM; TGI (SK-MEL-5 melanoma): > 100 µM; TGI (SNB-75 CNS): > 100 µM; TGI (SK-OV-3 ovarian): > 100 µM; TGI (SW-620 colon): > 100 µM; TGI (M14 melanoma): > 100 µM; TGI (SNB-78 CNS): > 100 µM; TGI (ACHN renal): > 100 µM; TGI (SK-MEL-28 melanoma): > 100 µM; TGI (SF-295 CNS): > 100 µM; TGI (CAKI-1 renal): > 100 µM; TGI (U251 CNS): > 100 µM; TGI (HOP-62 NSCLC): > 100 µM; TGI (MOLT-4 leukemia): > 100 µM; TGI (COLO 205 colon): > 100 µM; TGI (UACC-257 melanoma): > 100 µM; TGI (NCI-H460 lung): > 100 µM; TGI (OVCAR-4 ovarian): > 100 µM; TGI (786-0 renal): > 100 µM; TGI (K-562 leukemia): > 100 µM; TGI (NCI-H522 lung): > 100 µM; TGI (NCI-H23 lung): > 100 µM; TGI (LOX IMVI melanoma): > 100 µM; TGI (OVCAR-8 ovarian): > 100 µM; TGI (SF-268 CNS): > 100 µM; TGI (HL-60(TB) leukemia): > 100 µM; TGI (HCT-15 colon): > 100 µM; TGI (M19-MEL melanoma): > 100 µM; TGI (MALME-3M melanoma): > 100 µM; TGI (CCRF-CEM leukemia): > 100 µM; TGI (SR leukemia): > 100 µM; TGI (SK-MEL-2 melanoma): > 100 µM; TGI (EKVX NSCLC): > 100 µM; TGI (HT29 colon): > 100 µM; TGI (KM20L2 colon): > 100 µM; TGI (OVCAR-5 ovarian): > 100 µM; TGI (A549 NSCLC): > 100 µM; TGI (SF-539 CNS): > 100 µM; TGI (UO-31 renal): > 100 µM; TGI (SN12C renal): > 100 µM; TGI (KM12 colon): > 100 µM; TGI (DMS 273 small cell lung): > 100 µM; TGI (HCT-116 colon): > 100 µM; TGI (RPMI-8226 leukemia): > 100 µM; TGI (LXFL 529 NSCLC): > 100 µM; TGI (OVCAR-3 ovarian): > 100 µM; TGI (UACC-62 melanoma): > 100 µM; TGI (A498 renal): > 100 µM; TGI (DMS 114 small cell lung): > 100 µM

Which TGI (XF 498 CNS) does the source give for `COc1cc(C2Oc3cc(-c4oc5cc(O)cc(O)c5c(=O)c4O)ccc3OC2CO)ccc1O` (centres undefined) here?
Its TGI is over 62.4 µM.

What about the TGI (RXF 393 renal) of the same molecule?
Its TGI is 6.02 µM.

And the TGI (SNB-19 CNS)?
The TGI was 81.7 µM.

What about the TGI (SK-MEL-5 melanoma) of the same molecule?
Its TGI is 96.5 µM.

And the TGI (SNB-75 CNS)?
The TGI was over 60.7 µM.

And the TGI (SK-OV-3 ovarian)?
Its TGI is over 95.5 µM.

And the TGI (SW-620 colon)?
The TGI was over 100 µM.

And the TGI (M14 melanoma)?
Its TGI is over 70.5 µM.

And the TGI (SNB-78 CNS)?
Its TGI is over 100 µM.

What about the TGI (ACHN renal) of the same molecule?
Its TGI is 29.1 µM.

What about the TGI (SK-MEL-28 melanoma) of the same molecule?
The TGI was 62.3 µM.

What about the TGI (SF-295 CNS) of the same molecule?
The TGI was 64.8 µM.

What about the TGI (CAKI-1 renal) of the same molecule?
The TGI was over 73.2 µM.

What about the TGI (U251 CNS) of the same molecule?
The TGI was over 100 µM.

What about the TGI (HOP-62 NSCLC) of the same molecule?
The TGI was over 80.4 µM.

And the TGI (MOLT-4 leukemia)?
The TGI was over 38.9 µM.

What about the TGI (COLO 205 colon) of the same molecule?
The TGI was 75.3 µM.

And the TGI (UACC-257 melanoma)?
The TGI was over 100 µM.

What about the TGI (NCI-H460 lung) of the same molecule?
Its TGI is 12.7 µM.

What about the TGI (OVCAR-4 ovarian) of the same molecule?
Its TGI is over 76.7 µM.

And the TGI (786-0 renal)?
The TGI was 72.8 µM.

And the TGI (K-562 leukemia)?
The TGI was over 100 µM.

What about the TGI (NCI-H522 lung) of the same molecule?
The TGI was over 30 µM.

What about the TGI (NCI-H23 lung) of the same molecule?
Its TGI is 34.9 µM.

What about the TGI (HCC-2998 colon) of the same molecule?
The TGI was over 78.9 µM.

And the TGI (OVCAR-8 ovarian)?
The TGI was over 100 µM.

And the TGI (SF-268 CNS)?
Its TGI is over 57.2 µM.

And the TGI (HL-60(TB) leukemia)?
The TGI was over 64.5 µM.

What about the TGI (HCT-15 colon) of the same molecule?
The TGI was over 100 µM.

And the TGI (M19-MEL melanoma)?
The TGI was over 100 µM.

And the TGI (MALME-3M melanoma)?
Its TGI is 67 µM.

What about the TGI (CCRF-CEM leukemia) of the same molecule?
Its TGI is over 100 µM.

What about the TGI (SR leukemia) of the same molecule?
The TGI was over 54.1 µM.

And the TGI (SK-MEL-2 melanoma)?
The TGI was 32.6 µM.

And the TGI (NCI-H226 lung)?
Its TGI is 82.1 µM.

And the TGI (DLD-1 colon)?
The TGI was over 100 µM.

And the TGI (HT29 colon)?
Its TGI is 69.7 µM.

And the TGI (A549 NSCLC)?
Its TGI is over 100 µM.

And the TGI (SF-539 CNS)?
The TGI was 34.3 µM.

And the TGI (UO-31 renal)?
The TGI was 6.81 µM.

And the TGI (TK-10 renal)?
Its TGI is 58.3 µM.

What about the TGI (SN12C renal) of the same molecule?
Its TGI is over 95.2 µM.

What about the TGI (KM12 colon) of the same molecule?
Its TGI is over 100 µM.

What about the TGI (DMS 273 small cell lung) of the same molecule?
Its TGI is 31.2 µM.

And the TGI (IGROV1 ovarian)?
Its TGI is over 100 µM.

And the TGI (HCT-116 colon)?
The TGI was over 37.1 µM.

And the TGI (HOP-92 NSCLC)?
Its TGI is 52 µM.

And the TGI (RPMI-8226 leukemia)?
Its TGI is over 56.4 µM.

And the TGI (LXFL 529 NSCLC)?
Its TGI is over 100 µM.

And the TGI (OVCAR-3 ovarian)?
The TGI was 54.8 µM.

And the TGI (UACC-62 melanoma)?
Its TGI is over 100 µM.

And the TGI (A498 renal)?
Its TGI is over 49.3 µM.

What about the TGI (DMS 114 small cell lung) of the same molecule?
Its TGI is over 100 µM.
